What is called IC50 is the concentration needed to halve the response being measured.

The target in assay [1] is T1, A2A receptor (Homo sapiens, UniProt P29274).
T1 construct: host or cells: HEK-293
The assay can be described thus: A2aR antagonism IC50, cAMP TR-FRET in HEK-293 cells, high concentration of adenosine (30 μM).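 Also: compounds added 10 min before adenosine, then 30 min stimulation at room temperature in buffer with 100 µM rolipram and 30 µM EHNA, signal read 1 h after detection reagents.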 It counts as cell-based. As to conditions: HEK-293 cells expressing A2A receptor, agonist adenosine 30 μM, 2% HSA, inhibition of cAMP. Background: TR-FRET usually uses a lanthanide donor and a delayed reading to cut background.
Description: A Time-Resolved Fluorescence Energy Transfer (TR-FRET) assay was used to show the inhibition of this cAMP production in HEK cells upon treatment with compounds of the Formula I of the present disclosure.
HEK-293 cells expressing A2A receptor (#ES-011-C) or A2B receptor (#ES 013-C) were obtained from PerkinElmer. Cells were maintained in DMEM medium supplemented with 10% FBS and 200 μg/mL of G418 at 37° C. and 5% CO2. The cells were cultured in antibiotic free medium for a period of 16-20 hours prior to the assay. All subsequent steps of the assay are performed at room temperature (22-24° C.). […] About 1500 cells per well were pre-incubated for 10 minutes with the compounds of the present invention before adding the agonist Adenosine at a high concentration (30 μM) for a total stimulation time of 30 minutes. […] The assays were conducted in a stimulation buffer containing 1×DMEM, 5 mM HEPES, 2% Human serum albumin (HSA), 100 μM Rolipram and 30 μM erythro-9-(2-hydroxy-3-nonyl) adenine (EHNA). Serial dilutions of compounds were made in stimulation buffer to achieve a final concentration of high micromolar in a reaction volume of 10 μL. The total reaction volume was 10 μL (5 μL of cells, 2.5 μL of antagonist and 2.5 μL of agonist). […] The stimulation was ended, and the reaction completed by adding 5 μL of 4× Eu-cAMP tracer working solution and 5 μL of 4× ULight-anti-cAMP working solution. The TR FRET signal was measured after 1-hour incubation using a Tecan M1000 or a PerkinElmer Victor Nivo plate reader.

Assay [2] concerns the target T2, A2B receptor (Homo sapiens, UniProt P29275).
T2 sequence (P29275 1-332): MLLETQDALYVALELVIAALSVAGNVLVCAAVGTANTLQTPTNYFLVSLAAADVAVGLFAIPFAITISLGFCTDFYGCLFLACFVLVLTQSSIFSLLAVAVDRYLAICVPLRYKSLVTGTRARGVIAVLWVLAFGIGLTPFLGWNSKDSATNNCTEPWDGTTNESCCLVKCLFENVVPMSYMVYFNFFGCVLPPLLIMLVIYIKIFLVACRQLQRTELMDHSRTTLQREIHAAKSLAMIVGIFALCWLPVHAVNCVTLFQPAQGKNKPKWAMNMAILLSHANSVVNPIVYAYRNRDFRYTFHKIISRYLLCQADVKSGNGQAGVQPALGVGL
The assay can be described thus: A2bR antagonism IC50, cAMP TR-FRET (Lance Ultra) in HEK-293 cells, NECA as agonist. Further details: host or cells: HEK-293. The class given is cell-based. As to conditions: HEK-293 cells expressing A2B receptor; agonist NECA 30 nM (EC90); inhibition of cAMP.

Assay [3] has as its target T1, A2A receptor. Description: A2aR antagonism IC50, cAMP TR-FRET (Lance Ultra) in HEK-293 cells, NECA as agonist.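 Also: compounds tested from 10 µM down to 0.08 nM in buffer with Rolipram at room temperature, TR-FRET cAMP signal read 1 h after adding Eu-cAMP tracer and ULight anti-cAMP.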 It counts as cell-based. Conditions: A2AR IC50 (nM) (@5 nM NECA), HEK-293 cells expressing A2A receptor; agonist NECA 5 nM (EC90); inhibition of cAMP.
Excerpt: Adenosine A2A receptors and Adenosine A2B receptors induce the production of cAMP when activated/stimulated by an agonist like adenosine or 5′-(N-Ethylcarboxamido) adenosine (NECA). A Time-Resolved Fluorescence Energy Transfer (TR-FRET) assay was used to show the inhibition of this cAMP production in HEK cells upon treatment with compounds of the Formula I of the present disclosure.
HEK-293 cells expressing A2A receptor (#ES-011-C) or A2B receptor (#ES 013-C) were obtained from PerkinElmer. Cells were maintained in DMEM medium supplemented with 10% FBS and 200 μg/mL of G418 at 37° C. and 5% CO2. The cells were cultured in antibiotic free medium for a period of 16-20 hours prior to the assay. All subsequent steps of the assay are performed at room temperature (22-24° C.). The cells were harvested at about 80% confluency by gentle flushing with PBS, recovered by centrifugation and resuspended in stimulation buffer at the concentration of 5.0×10^6 cells/mL.
The assays were conducted in a stimulation buffer containing 1×DMEM, 5 mM HEPES, 0.1% BSA stabilizer and 20-30 μM Rolipram. Serial dilutions of compounds were made in stimulation buffer to achieve a final concentration of high micromolar (10 μM to 0.08 nM) in the reaction volume of 10 μL. The total reaction volume was 10 μL (5 μL of cells, 2.5 μL of antagonist and 2.5 μL of agonist). The stimulation was ended, and the reaction completed by adding 5 μL of 4× Eu-cAMP tracer working solution and 5 μL of 4× ULight-anti-cAMP working solution. The TR-FRET signal was measured after 1-hour incubation using a Tecan M1000 reader.
The target of assay [4] is T2, A2B receptor. The assay can be described thus: A2bR antagonism IC50, cAMP TR-FRET in HEK-293 cells, high concentration of adenosine (30 μM).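 Also: compounds preincubated 10 min with cells, then adenosine stimulation 30 min at room temperature in buffer with Rolipram 100 µM and EHNA 30 µM, TR-FRET read after 1 h.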 Conditions: A2BR IC50 (nM) (@30 μM Adenosine), HEK-293 cells expressing A2B receptor; agonist adenosine 30 μM; 2% HSA; inhibition of cAMP.
Setting [5] is: read-out: A2AR IC50 (nM) (@30 μM Adenosine).

T1 sequence (P29274 whole entry): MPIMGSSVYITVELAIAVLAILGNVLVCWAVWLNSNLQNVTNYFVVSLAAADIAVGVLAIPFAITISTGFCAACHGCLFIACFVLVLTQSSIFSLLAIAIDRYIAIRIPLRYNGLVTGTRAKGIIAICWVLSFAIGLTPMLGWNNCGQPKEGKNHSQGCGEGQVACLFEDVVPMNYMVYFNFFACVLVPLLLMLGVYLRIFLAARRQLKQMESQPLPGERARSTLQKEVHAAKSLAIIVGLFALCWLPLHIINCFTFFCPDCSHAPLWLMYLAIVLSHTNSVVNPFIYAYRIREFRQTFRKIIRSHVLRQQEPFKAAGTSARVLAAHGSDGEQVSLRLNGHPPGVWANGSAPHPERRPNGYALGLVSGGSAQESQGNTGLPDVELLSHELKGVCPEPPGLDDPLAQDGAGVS

`CCc1c(C)nn2c(N)c(C#N)c(NCCc3ccn(C4CCC4CO)n3)nc12` (racemic) [Example 77, (+−)-7-amino-3-ethyl-5-((2-(1-(2-(hydroxymethyl)cyclobutyl)-1H-pyrazol-3-yl)ethyl)amino)-2-methylpyrazolo[1,5-a]pyrimidine-6-carbonitrile]: the IC50 is 81 nM on A2A receptor [1] (setting [5]), 2 nM at A2B receptor [2], 0.1 nM on A2A receptor [3] and 700 nM on A2B receptor [4].
The matching figures for `CCc1c(C)nn2c(N)c(C#N)c(NCCc3cccc(C4(CO)CC4)n3)nc12` [Example 50, 7-amino-3-ethyl-5-((2-(6-(1-(hydroxymethyl)cyclopropyl)pyridin-2-yl)ethyl)amino)-2-methylpyrazolo[1,5-a] pyrimidine-6-carbonitrile]: 2160 nM, 3.6 nM, 0.2 nM and 2370 nM.
For `Cc1nn2c(N)c(C#N)c(NCCc3cccc(C4(CO)CC4)n3)nc2c1Cl` [Example 34, 7-amino-3-chloro-5-((2-(6-(1-(hydroxymethyl)cyclopropyl)pyridin-2-yl)ethyl)amino)-2-methylpyrazolo[1,5-a]pyrimidine-6-carbonitrile], the results for the IC50 at A2A receptor [1] (setting [5]), on A2B receptor [2] and at A2A receptor [3] were 160 nM, 6 nM and 0.4 nM, respectively.
In the case of `CCc1c(C)nn2c(N)c(C#N)c(NCCc3ccn(C(C)(C)CO)n3)nc12` [Example 32, 7-amino-3-ethyl-5-((2-(1-(1-hydroxy-2-methylpropan-2-yl)-1H-pyrazol-3-yl)ethyl)amino)-2-methylpyrazolo[1,5-a]pyrimidine-6-carbonitrile], the IC50 came out at 452 nM on A2A receptor [1] (setting [5]), 7.3 nM at A2B receptor [2], 0.5 nM at A2A receptor [3] and 2130 nM at A2B receptor [4].
For `CCc1c(C)nn2c(N)c(C#N)c(NCCc3cccc(C)n3)nc12` [Example 17, 7-Amino-3-ethyl-2-methyl-5-((2-(6-methylpyridin-2-yl)ethyl)amino) pyrazolo[1,5-a]pyrimidine-6-carbonitrile], in that order: 260 nM, 0.87 nM, 0.15 nM and 2380 nM.
For `Cc1nn2c(N)c(C#N)c(NCCc3cccc(CO)n3)nc2c1Cl` [Example 33, 7-amino-3-chloro-5-((2-(6-(hydroxymethyl)pyridin-2-yl)ethyl)amino)-2-methylpyrazolo[1,5-a]pyrimidine-6-carbonitrile], in that order: 206 nM, 0.97 nM, 0.38 nM and 1420 nM.
The matching figures for `Cc1nn2c(N)c(C#N)c(NCCc3ccn(C4(CO)CC4)n3)nc2c1C` [Example 55, 7-amino-5-((2-(1-(1-(hydroxymethyl)cyclopropyl)-1H-pyrazol-3-yl)ethyl)amino)-2,3-dimethylpyrazolo[1,5-a]pyrimidine-6-carbonitrile]: 250 nM, 8.6 nM, 0.74 nM and 3790 nM.
For the molecule `Cc1nn2c(N)c(C#N)c(NCCc3ccn(C4CCC4CN)n3)nc2c1Cl` (centres unmarked) [Example 95, 7-amino-5-((2-(1-(2-(aminomethyl)cyclobutyl)-1H-pyrazol-3-yl)ethyl)amino)-3-chloro-2-methylpyrazolo[1,5-a]pyrimidine-6-carbonitrile], the IC50 on A2A receptor [1] (setting [5]) was 112 nM; on A2B receptor [2] it was 53 nM; on A2A receptor [3], 1.2 nM; at A2B receptor [4] it was 1060 nM.
Turning to `Cc1nn2c(N)c(C#N)c(NCCc3nc(C4(CO)CC4)cs3)nc2c1Cl` [Example 61, 7-amino-3-chloro-5-((2-(4-(1-(hydroxymethyl)cyclopropyl)thiazol-2-yl)ethyl)amino)-2-methylpyrazolo[1,5-a] pyrimidine-6-carbonitrile], the IC50 at A2A receptor [1] (A2AR IC50 (nM) (@30 μM Adenosine)) was 574 nM; at A2B receptor [2], 24 nM; at A2A receptor [3], below 1 nM.
With `Cc1nn2c(N)c(C#N)c(NCCc3cccc(C4(CO)CC4)n3)nc2c1C` [Example 49, 7-amino-5-((2-(6-(1-(hydroxymethyl)cyclopropyl)pyridin-2-yl)ethyl)amino)-2,3-dimethylpyrazolo[1,5-a]pyrimidine-6-carbonitrile], the IC50 on A2A receptor [1] (setting [5]) amounted to 635 nM; on A2B receptor [2] it was 6 nM; on A2A receptor [3], 0.3 nM; at A2B receptor [4] it was 4260 nM.
For `CCc1cccc(CCNc2nc3c(C)c(C)nn3c(N)c2C#N)n1` [Example 40, 7-amino-5-((2-(6-ethylpyridin-2-yl)ethyl)amino)-2,3-dimethyl pyrazolo [1,5-a] pyrimidine-6-carbonitrile], in that order: 260 nM, 3.6 nM, below 0.1 nM and 2380 nM.
Take `Cc1nn2c(N)c(C#N)c(NCCc3cccc(C(C)(C)CO)n3)nc2c1Cl` [Example 65, 7-amino-3-chloro-5-((2-(6-(1-hydroxy-2-methylpropan-2-yl)pyridin-2-yl)ethyl)amino)-2-methylpyrazolo[1,5-a]pyrimidine-6-carbonitrile]: the values for the IC50 at A2A receptor [1] (setting [5]), at A2B receptor [2] and at A2A receptor [3] were 227 nM, 27 nM and below 1 nM, respectively.
On to `Cc1nn2c(N)c(C#N)c(NCCc3cccc(C4CC4CO)n3)nc2c1Cl` (centres unmarked) [Example 38, 7-amino-3-chloro-5-((2-(6-(2-(hydroxymethyl)cyclopropyl)pyridin-2-yl)ethyl)amino)-2-methylpyrazolo[1,5-a]pyrimidine-6-carbonitrile], for which the IC50 at A2A receptor [1] (setting [5]) turned out to be 178 nM; on A2B receptor [2], 4.4 nM; on A2A receptor [3], 0.1 nM.
Turning to `CCc1c(C)nn2c(N)c(C#N)c(NCCc3ccn(C4CCCC4CO)n3)nc12` (centres unmarked) [Example 115, 7-amino-3-ethyl-5-((2-(1-(2-(hydroxymethyl)cyclopentyl)-1H-pyrazol-3-yl)ethyl)amino)-2-methylpyrazolo[1,5-a]pyrimidine-6-carbonitrile], the IC50 was 117 nM on A2A receptor [1] (setting [5]), 9 nM at A2B receptor [2], 0.3 nM on A2A receptor [3] and 829 nM on A2B receptor [4].
As for `CCc1c(C(F)F)nn2c(N)c(C#N)c(NCCc3ccn(C(C)(C)CO)n3)nc12` [Example 48, 7-amino-2-(difluoromethyl)-3-ethyl-5-((2-(1-(1-hydroxy-2-methylpropan-2-yl)-1H-pyrazol-3-yl)ethyl)amino) pyrazolo[1,5-a]pyrimidine-6-carbonitrile], the half-inhibitory concentration (IC50) came out at 7660 nM at A2A receptor [1] (setting [5]), 51 nM at A2B receptor [2] and 2.2 nM at A2A receptor [3].
The matching figures for `Cc1nn2c(N)c(C#N)c(NCCc3ccn(C(C)(C)CO)n3)nc2c1Cl` [Example 36, 7-amino-3-chloro-5-((2-(1-(1-hydroxy-2-methylpropan-2-yl)-1H-pyrazol-3-yl)ethyl)amino)-2-methylpyrazolo[1,5-a]pyrimidine-6-carbonitrile]: 250 nM, 22 nM and 0.8 nM.
With `Cc1cccc(C(C)Nc2nc3c(C)c(C)nn3c(N)c2C#N)n1` (centres unmarked) [Example 1, 7-amino-2,3-dimethyl-5-{[1-(6-methylpyridin-2-yl)ethyl]amino}pyrazolo[1,5-a]pyrimidine-6-carbonitrile], the results for the IC50 on A2B receptor [2] and at A2A receptor [3] were 1330 nM and 10 nM, respectively.
The matching figures for `CCc1cccc(CNc2nc3c(C)c(C)nn3c(N)c2C#N)n1` [Example 7, 7-amino-5-{[(6-ethylpyridin-2-yl)methyl]amino}-2,3-dimethylpyrazolo[1,5-a] pyrimidine-6-carbonitrile]: above 3000 nM and 0.59 nM.

For the origin of these results see patent publication US12577247B2 (BUGWORKS RESEARCH, INC., priority 2021, dated 2026).
